What was measured:
[1] = biological target: IMP-1 (Serratia marcescens, UniProt P52699); assay: biochemical; format: biochemical; details: CCF2-FA substrate, 2 hours at 25° C; read-out: IMP-1 IC50
Summary of the method: (§1)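 Two-hour, 25° C incubation of enzyme with inhibitor and CCF2-FA (7-hydroxycoumarin–cephalosporin–fluorescein). Fluorescence read-out; IC50 via 4-parameter fit.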

[2] = biological target: NDM-1 (Klebsiella pneumoniae, UniProt C7C422); assay: biochemical; format: biochemical; details: CCF2-FA substrate, 2 hours at 25° C; read-out: NDM-1 IC50
Summary of the method: as §1

[3] = biological target: VIM-1 (Pseudomonas aeruginosa (strain ATCC 15692 / DSM 22644 / CIP 104116 / JCM 14847 / LMG 12228 / 1C / PRS 101 / PAO1), UniProt A0A0F7KYQ8); assay: biochemical; details: CCF2-FA substrate, 2 hours at 25° C
Summary of the method: as §1

[4] = tested on: Escherichia coli expressing NDM-1 (CLB30005, CLB30016); format: cell-based; details: with imipenem 1 μg/ml, 95% inhibition of bacterial growth; for Escherichia coli MITC95: NDM-1 (CLB30016)
Summary of the method: (§2)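 Colonies from overnight 35 °C blood-agar cultures were suspended in saline, diluted 1:100 into 1.1× CAMHB and exposed to test compound with or without imipenem at 1 μg/ml. After 22–24 h at 35 °C, absorbance was read to find the concentration restoring imipenem susceptibility.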

[5] = tested on: Klebsiella pneumoniae expressing VIM-1 (IHMA599644); format: cell-based; details: with imipenem 1 μg/ml, 95% inhibition of bacterial growth; for Klebsiella pneumoniae MITC95: VIM-1 (IHMA599644)
Summary of the method: as §2

[6] = tested on: Serratia marcescens expressing IMP-1 (CL5741); format: cell-based; details: with imipenem 1 μg/ml, 95% inhibition of bacterial growth; for Serratia marcescens MITC95: IMP-1 (CL5741)
Summary of the method: as §2

[7] = tested on: P. aeruginosa expressing IMP-1, efflux+ (MB9798); format: cell-based, Pseudomonas aeruginosa; details: for P. aeruginosa expressing IMP-1, efflux+ (MB9798) MITC95: imipenem at 2 μg/mL, in the presence of a class A, C, D serine β-lactamase inhibitor closely related to relebactam; for Efflux ratio: ratio MITC95 PA_9798/MITC95 PA_9799
Text: (§3) The strain background is Pseudomonas aeruginosa PAO1.

[8] = tested on: P. aeruginosa expressing IMP-1, efflux− (MB9799); assay: Efflux: concentration of MBL inhibitor which restores susceptibility to imipenem; format: cell-based, Pseudomonas aeruginosa; details: imipenem at 2 μg/mL, in the presence of a class A, C, D serine β-lactamase inhibitor closely related to relebactam
Text: as §3

NDM-1, sequence (C7C422 whole entry, looked up, species assumed): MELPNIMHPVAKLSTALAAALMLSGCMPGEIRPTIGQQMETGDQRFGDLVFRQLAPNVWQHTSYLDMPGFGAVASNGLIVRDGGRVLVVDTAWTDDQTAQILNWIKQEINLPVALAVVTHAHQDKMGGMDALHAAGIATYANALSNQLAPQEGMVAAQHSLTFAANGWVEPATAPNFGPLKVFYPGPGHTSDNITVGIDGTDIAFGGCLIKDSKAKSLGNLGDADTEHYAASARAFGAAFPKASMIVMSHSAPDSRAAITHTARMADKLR
IMP-1, sequence (P52699 whole entry, looked up, species assumed): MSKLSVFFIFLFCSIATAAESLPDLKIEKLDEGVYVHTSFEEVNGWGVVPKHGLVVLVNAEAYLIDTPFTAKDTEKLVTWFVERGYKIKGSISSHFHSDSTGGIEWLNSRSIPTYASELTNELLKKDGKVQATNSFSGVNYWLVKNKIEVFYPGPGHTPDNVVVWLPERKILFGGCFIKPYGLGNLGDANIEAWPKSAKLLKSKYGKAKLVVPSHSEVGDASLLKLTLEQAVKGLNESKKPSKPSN

| Compound | IC50 [1] | IC50 [2] | IC50 [3] | Escherichia coli MITC95 [4] | Klebsiella pneumoniae MITC95 [5] | Serratia marcescens MITC95 [6] | P. aeruginosa expressing IMP-1, efflux+ (MB9798) MITC95 [7] | Efflux ratio [7] | P. aeruginosa expressing IMP-1, efflux− (MB9799) MITC95 [8] | Escherichia coli expressing NDM-1 (CLB30016) MITC95 [4] | Klebsiella pneumoniae expressing VIM-1 (IHMA599644) MITC95 [5] | Serratia marcescens expressing IMP-1 (CL5741) MITC95 [6] |
| --- | --- | --- | --- | --- | --- | --- | --- | --- | --- | --- | --- | --- |
| NCCNC(=O)c1cccc(-c2ccc(S(=O)(=O)CCN)c(S(N)(=O)=O)c2-c2nn[nH]n2)c1N [Example 378, 2-amino-N-(2-aminoethyl)-4′-((2-aminoethyl)sulfonyl)-3′-sulfamoyl-2′-(2H-tetrazol-5-yl)-[1,1′-biphenyl]-3-carboxamide] | 5.1 nM | 3.72 nM | 0.544 nM | 0.7813 µM | 1.563 µM | 0.7813 µM | 1.563 µM | 2.00 | 0.7813 µM |  |  |  |
| NC(=O)c1nc2c(-c3ccc(S(=O)(=O)C4CNC4)c(S(N)(=O)=O)c3-c3nn[nH]n3)cccc2[nH]1 [Example 254, 4-(4-(Azetidin-3-ylsulfonyl)-3-sulfamoyl-2-(2H-tetrazol-5-yl)phenyl)-1H-benzo[d]imidazole-2-carboxamide] | 0.748 nM | 0.0825 nM | 0.218 nM | 1.563 µM | 6.25 µM | 3.125 µM | 3.125 µM | 2.00 | 1.563 µM |  |  |  |
| NC[C@@H](O)CS(=O)(=O)c1ccc(-c2cccc3[nH]c(N)nc23)c(-c2nn[nH]n2)c1S(N)(=O)=O [Example 312, 3-(2-amino-1H-benzo[d]imidazol-4-yl)-6-((R)-3-amino-2-hydroxypropylsulfonyl)-2-(2H-tetrazol-5-yl)benzenesulfonamide] | 0.43 nM | 0.12 nM | 0.389 nM | 0.3477 µM | 0.8542 µM | 0.5573 µM | 0.2786 µM | 0.50 | 0.5573 µM |  |  |  |
| Nc1nc2cc(-c3ccc(SC4CNC4)c(S(N)(=O)=O)c3-c3nn[nH]n3)ccc2[nH]1 [Example 1, 3-(2-amino-1H-benzo[d]imidazol-5-yl)-6-(azetidin-3-ylthio)-2-(2H-tetrazol-5-yl)benzenesulfonamide] | 422 nM | 20.8 nM | 141 nM |  |  |  | 50 µM | 8.00 | 6.25 µM | 0.3906 µM | 6.25 µM | 6.25 µM |
| CS(=O)(=O)c1ccc(-c2ccc(C3CCNCC3)cc2)c(-c2nnn[nH]2)c1S(N)(=O)=O [Example 236, 4-(methylsulfonyl)-4′-(piperidin-4-yl)-2-(1H-tetrazol-5-yl)-[1,1′-biphenyl]-3-sulfonamide] | 0.103 nM | 2.12 nM | 0.127 nM |  |  |  | 6.25 µM | 8.00 | 0.7813 µM | 3.125 µM | 3.125 µM | 3.125 µM |
| Nc1ncc(-c2ccc(S(=O)(=O)C3CNC3)c(S(N)(=O)=O)c2-c2nn[nH]n2)c2cccnc12 [Example 248, 3-(8-Amino-1,7-naphthyridin-5-yl)-6-(azetidin-3-ylsulfonyl)-2-(2H-tetrazol-5-yl)benzenesulfonamide] | 2.09 nM | 0.566 nM | 0.556 nM | 3.125 µM | 3.125 µM | 1.563 µM | 6.25 µM | 4.00 | 1.563 µM |  |  |  |
| CCCn1c(N)nc2c(-c3ccc(S(=O)(=O)C4CNC4)c(S(N)(=O)=O)c3-c3nn[nH]n3)cccc21 [Example 289, 3-(2-amino-1-propyl-1H-benzo[d]imidazol-4-yl)-6-(azetidin-3-ylsulfonyl)-2-(2H-tetrazol-5-yl)benzenesulfonamide] | 0.299 nM | 0.12 nM | 0.407 nM | 0.3906 µM | 3.125 µM | 1.563 µM | 12.5 µM | 8.00 | 1.563 µM |  |  |  |
| C[C@@H](CN)S(=O)(=O)c1ccc(-c2cccc3c2nc(N)n3C)c(-c2nn[nH]n2)c1S(N)(=O)=O [Example 280, 3-(2-amino-1-methyl-1H-benzo[d]imidazol-4-yl)-6-((S)-1-aminopropan-2-ylsulfonyl)-2-(2H-tetrazol-5-yl)benzenesulfonamide] | 0.954 nM | 0.224 nM | 0.445 nM | 0.3906 µM | 1.563 µM | 0.7813 µM | 3.125 µM | 4.00 | 0.7813 µM |  |  |  |
| NCCS(=O)(=O)c1ccc(-c2cccc3nc(N)sc23)c(-c2nn[nH]n2)c1S(N)(=O)=O [Example 78, 3-(2-aminobenzo[d]thiazol-7-yl)-6-(2-aminoethylsulfonyl)-2-(2H-tetrazol-5-yl)benzenesulfonamide] | 0.441 nM | 0.0576 nM | 0.136 nM |  |  |  | 1.172 µM | 1.50 | 0.7813 µM | 0.7813 µM | 2.344 µM | 1.172 µM |

— US10227331B2 (priority 2015, dated 2019)
